# Measured values from patent US20240277713A1 (Kadmon Corporation, LLC, priority 2022, published 2024).
# Where two headings read alike, the source gives them in different places.
# Legend:
# [1] = Toxicokinetic analysis in rat plasma (Example 5); type: in vivo; settings: for Cmax / AUC(0-t): rat, plasma; for AUC(0-t): read-out: AUC0-24
# Procedure: TK animals were dosed for 70 and 14 days for the males and females, respectively. Dosing of TK males and females was initiated simultaneously, continuing to euthanasia. Refrigerated daily aliquots of dosing formulations were brought to room temperature while continuously stirring for at least 30 minutes prior to dosing.
# dogs = assay: General toxicology studies in dogs; type: in vivo, dog
# [2] = Pharmacokinetics in healthy subjects; type: in vivo, human
# [3] = Clinical drug interaction studies, effects of other drugs on belumosudil; type: in vivo, human; settings: healthy subjects
# BCRP = target: T1, BCRP (Homo sapiens, UniProt Q9UNQ0); assay: Transporter systems in vitro: BCRP; type: in vitro ADME; settings: clinically relevant concentrations
# T1 sequence (Q9UNQ0 1-655): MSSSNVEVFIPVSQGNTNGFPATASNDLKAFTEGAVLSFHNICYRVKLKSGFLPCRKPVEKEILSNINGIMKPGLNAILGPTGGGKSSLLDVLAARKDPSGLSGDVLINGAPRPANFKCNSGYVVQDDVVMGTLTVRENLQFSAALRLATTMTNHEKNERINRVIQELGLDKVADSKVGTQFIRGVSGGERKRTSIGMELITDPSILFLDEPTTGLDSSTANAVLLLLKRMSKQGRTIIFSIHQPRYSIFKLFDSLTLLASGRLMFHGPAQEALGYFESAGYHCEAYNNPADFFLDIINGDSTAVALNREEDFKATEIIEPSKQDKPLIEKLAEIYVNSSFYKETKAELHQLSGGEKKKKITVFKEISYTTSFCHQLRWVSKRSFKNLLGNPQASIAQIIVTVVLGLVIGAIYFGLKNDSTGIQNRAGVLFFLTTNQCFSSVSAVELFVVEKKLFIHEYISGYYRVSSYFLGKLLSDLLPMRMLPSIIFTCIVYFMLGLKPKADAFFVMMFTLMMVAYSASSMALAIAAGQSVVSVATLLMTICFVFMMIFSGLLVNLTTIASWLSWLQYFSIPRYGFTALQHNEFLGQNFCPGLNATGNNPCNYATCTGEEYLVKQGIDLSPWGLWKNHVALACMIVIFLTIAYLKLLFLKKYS
# CYP1A2 = target: T2, CYP1A2 (Homo sapiens, UniProt P05177); assay: Enzyme systems in vitro: CYP1A2; type: in vitro ADME
# T2 sequence (P05177 1-516): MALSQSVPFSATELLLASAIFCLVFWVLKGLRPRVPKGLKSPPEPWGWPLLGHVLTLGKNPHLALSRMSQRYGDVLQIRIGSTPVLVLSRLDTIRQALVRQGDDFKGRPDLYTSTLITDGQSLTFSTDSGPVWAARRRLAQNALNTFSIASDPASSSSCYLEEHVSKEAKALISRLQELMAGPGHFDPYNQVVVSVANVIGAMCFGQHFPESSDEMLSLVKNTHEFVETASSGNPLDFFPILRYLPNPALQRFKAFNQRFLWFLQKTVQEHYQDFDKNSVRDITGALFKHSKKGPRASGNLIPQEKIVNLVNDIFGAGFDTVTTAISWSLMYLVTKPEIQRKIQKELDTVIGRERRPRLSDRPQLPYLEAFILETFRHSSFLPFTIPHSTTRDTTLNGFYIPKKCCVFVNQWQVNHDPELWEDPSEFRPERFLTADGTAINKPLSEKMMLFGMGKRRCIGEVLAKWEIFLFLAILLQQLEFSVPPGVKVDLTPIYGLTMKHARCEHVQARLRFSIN
# CYP2C19 = CYP2C19 (Homo sapiens, UniProt P33261); assay: Enzyme systems in vitro: CYP2C19; type: in vitro ADME
# [4] = tested on: human peripheral blood lymphocytes (HPBL); assay: in vitro chromosome aberration assay; type: cell-based
# [5] = Group 14 (50 mg base/kg/day), Day 1
# [6] = single oral dose of radiolabeled belumosudil
# [7] = coadministration of rabeprazole
# Chain of CYP2C19 (P33261 whole entry): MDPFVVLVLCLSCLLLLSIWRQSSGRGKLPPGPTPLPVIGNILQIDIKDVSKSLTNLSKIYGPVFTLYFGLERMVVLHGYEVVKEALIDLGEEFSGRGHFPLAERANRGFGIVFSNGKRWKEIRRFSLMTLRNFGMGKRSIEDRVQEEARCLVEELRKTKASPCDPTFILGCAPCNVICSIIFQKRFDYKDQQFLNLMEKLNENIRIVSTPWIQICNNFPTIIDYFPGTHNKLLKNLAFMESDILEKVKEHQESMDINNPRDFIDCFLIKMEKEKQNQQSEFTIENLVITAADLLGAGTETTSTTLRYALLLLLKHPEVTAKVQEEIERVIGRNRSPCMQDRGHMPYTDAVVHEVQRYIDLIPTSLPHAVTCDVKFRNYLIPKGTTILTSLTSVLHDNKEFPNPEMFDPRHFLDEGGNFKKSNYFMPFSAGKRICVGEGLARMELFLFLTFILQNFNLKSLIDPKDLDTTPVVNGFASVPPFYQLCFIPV
smiles,measurement,setting,value
"CC(C)NC(=O)COc1cccc(-c2nc(Nc3ccc4[nH]ncc4c3)c3ccccc3n2)c1 [belumosudil, 2-{3-[4-(1H-indazol-5-ylamino)-2-quinazolinyl]phenoxy}-N-(propan-2-yl) acetamide]",AUC0-24 in rat plasma,"[1]; Day 1, belumosudil 50 mg base/kg, F",49200 ng·h/mL
same,AUC0-24 in rat plasma,"[1]; Day 1, belumosudil 50 mg base/kg, M",20100 ng·h/mL
same,AUC0-24 in rat plasma,"[1]; Day 1, belumosudil 150 mg base/kg, F",95700 ng·h/mL
same,AUC0-24 in rat plasma,"[1]; Day 1, belumosudil 150 mg base/kg, M",81600 ng·h/mL
same,AUC0-24 in rat plasma,"[1]; Day 1, belumosudil 275 mg base/kg, F",122000 ng·h/mL
same,AUC0-24 in rat plasma,"[1]; Day 1, belumosudil 275 mg base/kg, M",96400 ng·h/mL
same,AUC0-24 in rat plasma,"[1]; Day 14, belumosudil 50 mg base/kg, F",26200 ng·h/mL
same,AUC0-24 in rat plasma,"[1]; Day 14, belumosudil 150 mg base/kg, F",99500 ng·h/mL
same,AUC0-24 in rat plasma,"[1]; Day 14, belumosudil 275 mg base/kg, F",209000 ng·h/mL
same,AUC0-24 in rat plasma,"[1]; Day 70, belumosudil 50 mg base/kg, M",21600 ng·h/mL
same,AUC0-24 in rat plasma,"[1]; Day 70, belumosudil 150 mg base/kg, M",70100 ng·h/mL
same,AUC0-24 in rat plasma,"[1]; Day 70, belumosudil 275 mg base/kg, M",191000 ng·h/mL
same,"sex difference in AUC0-24, females higher than males",[1]; [5],~2.44 fold
same,"sex difference in Cmax, females higher than males",[1]; [5],approximately 2.10 fold
same,Cmax,"[1]; female, Sprague-Dawley, oral, 150 mg base/kg",9860 ng/mL
same,AUC(0-t),"[1]; female, Sprague-Dawley, oral, 150 mg base/kg/day, females",99500 ng·h/mL
same,Cmax,"[1]; female, Sprague-Dawley, po, 50 mg/kg/day",3200 ng/mL
same,AUC(0-t),"[1]; female, Sprague-Dawley, po, 50 mg/kg/day, 50 mg base/kg/day, females",26200 ng·h/mL
same,Cmax,"[1]; female, Sprague-Dawley, po, 275 mg/kg/day, Day 14, belumosudil 275 mg base/kg, F",14900 ng/mL
same,AUC(0-t),"[1]; female, Sprague-Dawley, po, 275 mg/kg/day, 275 mg base/kg/day, females",209000 ng·h/mL
same,Cmax,"[1]; female, po, 50 mg/kg/day",4540 ng/mL
same,Cmax,"[1]; female, po, 150 mg/kg/day",5670 ng/mL
same,Cmax,"[1]; female, po, 275 mg/kg/day, Day 1, belumosudil 275 mg base/kg, F",7050 ng/mL
same,Cmax,"[1]; male, Sprague-Dawley, po, 50 mg/kg/day",2480 ng/mL
same,AUC(0-t),"[1]; male, Sprague-Dawley, po, 50 mg/kg/day, 50 mg base/kg/day, males",21600 ng·h/mL
same,Cmax,"[1]; male, Sprague-Dawley, po, 150 mg/kg/day",10100 ng/mL
same,AUC(0-t),"[1]; male, Sprague-Dawley, po, 150 mg/kg/day, 150 mg base/kg/day, males",70100 ng·h/mL
same,Cmax,"[1]; male, po, 50 mg/kg/day",2170 ng/mL
same,Cmax,"[1]; male, po, 150 mg/kg/day",5370 ng/mL
same,Cmax,"[1]; male, po, 275 mg/kg/day, Day 1, belumosudil 275 mg base/kg, M",7200 ng/mL
same,Cmax,"[1]; male, po, 275 mg/kg/day, Day 70, belumosudil 275 mg base/kg, M",20400 ng/mL
same,dose with spermatozoa degeneration,dogs,35 mg/kg/day
same,Tmax,"[2]; human, in vivo, oral, single dose, read-out: delay of median Tmax with high-fat and high-calorie meal",30 min
same,Vd,"[2]; human, in vivo, single dose, geo CV % 67.7%, read-out: geometric mean volume of distribution",184 L
same,increase in AUC with high-fat and high-calorie meal compared to fasted state,[2]; single dose,2 times
same,increase in Cmax with high-fat and high-calorie meal compared to fasted state,[2]; single dose,2.2 times
same,mean (% CV) bioavailability,[2]; single dose,64% (17%)
same,radioactivity recovered in feces,[2]; [6],85%
same,radioactivity recovered in urine,[2]; [6],less than 5%
same,recovered in feces as unchanged,[2]; [6],30%
same,effect on belumosudil exposure,[3]; coadministered with itraconazole,no clinically meaningful effect
same,decrease in belumosudil AUC,[3]; coadministration of omeprazole,47%
same,decrease in belumosudil Cmax,[3]; coadministration of omeprazole,68%
same,decrease in belumosudil AUC,[3]; [7],80%
same,decrease in belumosudil Cmax,[3]; [7],87%
same,decrease in belumosudil AUC,[3]; coadministration of rifampin,72%
same,decrease in belumosudil Cmax,[3]; coadministration of rifampin,59%
same,BCRP inhibition,BCRP,inhibits
same,CYP1A2 inhibition,CYP1A2,inhibitor
same,CYP2C19 inhibition,CYP2C19,inhibitor
same,"genotoxicity, chromosome aberration assay",[4],not genotoxic
